Measurements from patent publication US5596002A, “Method of treating chloroquine-resistant malaria with aminoquinoline derivatives” (Hoffmann-La Roche Inc., priority 1993, dated 1997).
In brackets after ≈: the same amount, converted by molar mass. Like-named read-outs stand apart in the source and are kept apart here.

Experiments:
[1] = tested on: Plasmodium falciparum, chloroquine-resistant strain ItG2 F6; assay: activity against P. falciparum in vitro, strain ItG2 F6; type: cell-based; settings: chloroquine-resistant strain ItG2 F6, 48 h-72 h, read-out: IC50 (50% growth inhibition)
Procedure: (§1) Test method for the determination of the activity against P. falciparum in vitro
(§2) The preparations of the present invention were tested on intraerythrocytary stages of P. falciparum from asynchronous cultures according to the method of Desjardin et al. (Desjardins, R. E. et al: Quantitative assessment of antimalarial activity in vitro by a semiautomated microdilution technique. Antimicrob. Agents Chemother. 16, 710-718, (1979)).
(§3) The culture medium consisted of RPMI 1640 with the addition of 25 mM HEPES, 25 mM NaHCO3, […] neomycin and 10% human serum (A^+). Human-A^+ erythrocytes were used as the P. falciparum host cells. The parasites were maintained at 37° C. in an atmosphere of 3% O2, 4% CO2, 93% N2 and at 95% relative humidity.
(§4) In order to determine the activity, the preparations were dissolved in DMSO, pre-diluted in the culture medium to a suitable starting concentration and subsequently titrated-out into microtitre plates in the 2nd stage over 6-7 steps. After the addition of the parasite culture (0.7% parasitemia in 2.5% erythrocyte suspension), the test plates were incubated under the conditions given above for 48 h-72 h. The parasite growth in the different preparation concentrations was determined using [G-^3 H]-hypoxanthin incorporation compared to untreated control cultures on the same test plates. The 50% growth inhibition (IC50) was calculated according to logit regression analysis from the resulting dosage-activity curve.
(§5) The preparations were tested on at least one chloroquine-resistant and one chloroquine-sensitive P. falciparum strain. Additional sensitive and resistant strains were also included for further characterization.
(§6) Table 1 below contains the IC50 values measured in vitro for the growth inhibition of chloroquine-sensitive and chloroquine-resistant strains of the human pathogenic Plasmodium falciparum.

[2] = tested on: Plasmodium falciparum, chloroquine-resistant strain K1; assay: activity against P. falciparum in vitro, strain K1; type: cell-based; settings: Plasmodium falciparum; chloroquine-resistant strain K1; 48 h-72 h; read-out: IC50 (50% growth inhibition)
Procedure: as §1, §2, §3, §4, §5, §6

[3] = tested on: Plasmodium falciparum, chloroquine-resistant strain W2; assay: activity against P. falciparum in vitro, strain W2; type: cell-based; settings: chloroquine-resistant strain W2, 48 h-72 h, read-out: IC50 (50% growth inhibition)
Procedure: as §1, §2, §3, §4, §5, §6

[4] = tested on: Plasmodium berghei (strain ANKA); assay: activity against Plasmodium berghei in vivo (infected mice); settings: mice; for ED50: single administration po, dose reducing average erythrocyte infection rate by 50%, read-out: ED50 (po); for inhibition in vivo at 10 mg/kg: 48 hours after treatment (D+3)
Procedure: Test method for the determination of the activity against Plasmodium berghei in vivo
The preparations according to the present invention were tested on mice infected with malaria pathogens (Plasmodium berghei). Male albino mice (IBM:MORO(SPF), FUELLINSDORF) weighing about 25 g were used as the test animals. They were kept in climatized rooms at 21°-22° C. in groups of 5 animals per cage. They received ad libitum a diet feed with a low PABA content ("NAFAG FUTTER" No. 9009 PAB-45, PABA content 45 mg/kg) and drinking water. On the first day of the test (D0) the test animals were infected with Plasmodium berghei (strain ANKA). For this there was used heparinized blood of a donor mouse with about 30% parasitemia, which was diluted with physiological saline such that it contains 10^8 parasitized erythrocytes per ml. 0.2 ml of this suspension was injected intravenously (i.v.) into the mice to be treated and into the control mice. In untreated control animals the parasitemia normally reaches 30-40% on the third day after the infection (D+3) and the test animals die between days +5 and +7.
The substances to be tested were dissolved or suspended in distilled water or in a mixture of 7% Tween 80, 3% alcohol (96%) and water. Usually, 0.25 ml of this solution or suspension was administered once subcutaneously and perorally to groups of 5 test animals. Treatment was effected 24 hours after the infection. 10 control animals were treated in the same manner with solvent or suspension medium per test.
All substances were tested in a first test in a single dosage of 10 mg/kg. Only those substances which in this test (10 mg/kg) had shown a parasitaemia reduction of 90% were used for the titration.
48 hours after the treatment (D+3), blood smears were prepared from all animals using blood from tail veins and were stained with Giemsa. The average erythrocyte infection rate (parasitemia in %) in the control groups as well as in the groups which had been treated with the test compounds was determined by counting under a microscope. The difference in the average values of the infection rates of control group (100%) and treated groups was calculated and expressed as a percentage reduction (GI %). The ED50 or ED90 was determined mathematically by means of the JMP programme (nonlinear fit). The ED50 (ED90) in mg/kg is that dose which after single administration reduces the average erythrocyte infection rate by 50% (90%) in comparison to the control group.
Table 2 below contains data with respect to the activity measured against Plasmodium berghei in mice: GI % is the percentage reduction in the parasitemia after a single dose of 10 mg/kg of the test substance administered perorally (po) or subcutaneously (sc); ED50 and ED90 are the effective doses of the test substance administered perorally or subcutaneously.

[5] = tested on: Plasmodium falciparum, chloroquine-sensitive strain HB3; assay: activity against P. falciparum in vitro, strain HB3; type: cell-based; settings: chloroquine-sensitive strain HB3, 48 h-72 h, read-out: IC50 (50% growth inhibition)
Procedure: as §1, §2, §3, §4, §5, §6

[6] = tested on: Plasmodium falciparum, chloroquine-resistant strain W2 Mef; assay: activity against P. falciparum in vitro, strain W2 Mef; type: cell-based; settings: 48 h-72 h, read-out: IC50 (50% growth inhibition)
Procedure: as §1, §2, §3, §4, §5, §6

[7] = tested on: Plasmodium falciparum, chloroquine-resistant strain 7G8; assay: activity against P. falciparum in vitro, strain 7G8; type: cell-based; settings: chloroquine-resistant strain 7G8, 48 h-72 h, read-out: IC50 (50% growth inhibition)
Procedure: as §1, §2, §3, §4, §5, §6

[8] = tested on: Plasmodium falciparum, chloroquine-sensitive strain FCH5C2; assay: activity against P. falciparum in vitro, strain FCH5C2; type: cell-based; settings: chloroquine-sensitive strain FCH5C2, 48 h-72 h, read-out: IC50 (50% growth inhibition)
Procedure: as §1, §2, §3, §4, §5, §6

[9] = tested on: Plasmodium falciparum, chloroquine-resistant strain Indo; assay: activity against P. falciparum in vitro, strain Indo; type: cell-based; settings: chloroquine-resistant strain Indo, 48 h-72 h, read-out: IC50 (50% growth inhibition)
Procedure: as §1, §2, §3, §4, §5, §6

[10] = tested on: Plasmodium falciparum, chloroquine-sensitive strain NF54; assay: activity against P. falciparum in vitro, strain NF54; type: cell-based; settings: Plasmodium falciparum; chloroquine-sensitive strain NF54; 48 h-72 h; read-out: IC50 (50% growth inhibition)
Procedure: as §1, §2, §3, §4, §5, §6

[11] = tested on: Plasmodium falciparum, chloroquine-resistant strain RFCR3; assay: activity against P. falciparum in vitro, strain RFCR3; type: cell-based; settings: chloroquine-resistant strain RFCR3, 48 h-72 h, read-out: IC50 (50% growth inhibition)
Procedure: as §1, §2, §3, §4, §5, §6

[12] = tested on: Plasmodium falciparum, chloroquine-sensitive strain Ro7 3; assay: activity against P. falciparum in vitro, strain Ro7 3; type: cell-based; settings: chloroquine-sensitive strain Ro7 3, 48 h-72 h, read-out: IC50 (50% growth inhibition)
Procedure: as §1, §2, §3, §4, §5, §6

[13] = tested on: Plasmodium falciparum, chloroquine-sensitive strain RFMEF3; assay: activity against P. falciparum in vitro, strain RFMEF3; type: cell-based; settings: chloroquine-sensitive strain RFMEF3, 48 h-72 h, read-out: IC50 (50% growth inhibition)
Procedure: as §1, §2, §3, §4, §5, §6

[14] = single dose 10 mg/kg po, read-out: GI % at 10 mg/kg (po): percentage reduction in the parasitemia
[15] = single dose 10 mg/kg sc, read-out: GI % at 10 mg/kg (sc): percentage reduction in the parasitemia

| SMILES | IC50 [1] [ng/mL] | IC50 [2] [ng/mL] | IC50 [3] [ng/mL] | ED50 [4] [mg/kg] | inhibition in vivo at 10 mg/kg [4, 14] [%] | inhibition in vivo at 10 mg/kg [4, 15] [%] | IC50 [5] [ng/mL] | IC50 [6] [ng/mL] | IC50 [7] [ng/mL] | IC50 [8] [ng/mL] | IC50 [9] [ng/mL] | IC50 [10] [ng/mL] | IC50 [11] [ng/mL] | IC50 [12] [ng/mL] | IC50 [13] [ng/mL] |
| --- | --- | --- | --- | --- | --- | --- | --- | --- | --- | --- | --- | --- | --- | --- | --- |
| CN(C)CCNc1ccnc2cc(Cl)ccc12 [Example 5, N2-(7-Chloro-quinolin-4-yl)-N1,N1-dimethyl-ethane-1,2-diamine] | 4 (≈ 0.016 µM) | 7 (≈ 0.028 µM) | 7 (≈ 0.028 µM) | 3.3 | 99.5 | 99 | 6 (≈ 0.024 µM) | 9 (≈ 0.036 µM) | 7 (≈ 0.028 µM) | 9 (≈ 0.036 µM) | 4 (≈ 0.016 µM) | 4 (≈ 0.016 µM) | 6 (≈ 0.024 µM) | – | – |
| CCN(CC)CCNc1ccnc2cc(Cl)ccc12 [Example 6, N2-(7-Chloro-quinolin-4-yl)-N1,N1-diethyl-ethane-1,2-diamine] | 5 (≈ 0.018 µM) | 9 (≈ 0.0324 µM) | 8 (≈ 0.0288 µM) | 3.5 | 99 | 99 | 8 (≈ 0.0288 µM) | – | 9 (≈ 0.0324 µM) | 8 (≈ 0.0288 µM) | 4 (≈ 0.0144 µM) | 5 (≈ 0.018 µM) | 8 (≈ 0.0288 µM) | – | – |
| Clc1ccc2c(NCCN3CCCC3)ccnc2c1 [Example 7, (7-Chloro-quinolin-4-yl)-(2-pyrrolidin-1-yl-ethyl)-amine] | 5 (≈ 0.0181 µM) | 8 (≈ 0.029 µM) | 7 (≈ 0.0254 µM) | – | – | – | 6 (≈ 0.0218 µM) | 8 (≈ 0.029 µM) | 8 (≈ 0.029 µM) | 7 (≈ 0.0254 µM) | 4 (≈ 0.0145 µM) | 4 (≈ 0.0145 µM) | 7 (≈ 0.0254 µM) | – | – |
| CN(C)CCCNc1ccnc2cc(Cl)ccc12 [Example 15, N3-(7-Chloro-quinolin-4-yl)-N1,N1-dimethyl-propane-1,3-diamine] | 3 (≈ 0.0114 µM) | 6 (≈ 0.0227 µM) | 7 (≈ 0.0265 µM) | 2 | 99.8 | 99.9 | 3 (≈ 0.0114 µM) | 12 (≈ 0.0455 µM) | 7 (≈ 0.0265 µM) | 5 (≈ 0.019 µM) | 3 (≈ 0.0114 µM) | 2 (≈ 0.00758 µM) | 5 (≈ 0.019 µM) | – | – |
| CCN(CC)CCCNc1ccnc2cc(Cl)ccc12 [Example 16, N3-(7-Chloro-quinolin-4-yl)-N1,N1-diethyl-propane-1,3-diamine] | 5 (≈ 0.0171 µM) | 9 (≈ 0.0308 µM) | 9 (≈ 0.0308 µM) | 2 | 99.9 | 99.9 | 5 (≈ 0.0171 µM) | – | 9 (≈ 0.0308 µM) | 6 (≈ 0.0206 µM) | 4 (≈ 0.0137 µM) | 3 (≈ 0.0103 µM) | 8 (≈ 0.0274 µM) | – | – |
| Clc1ccc2c(NCCCN3CCCC3)ccnc2c1 [Example 17, (7-Chloro-quinolin-4-yl)-(3-pyrrolidin-1-yl-propyl)-amine] | 7 (≈ 0.0242 µM) | 15 (≈ 0.0518 µM) | 14 (≈ 0.0483 µM) | 4.6 | 95 | 99 | 6 (≈ 0.0207 µM) | – | 14 (≈ 0.0483 µM) | 4 (≈ 0.0138 µM) | 7 (≈ 0.0242 µM) | 3 (≈ 0.0104 µM) | 11 (≈ 0.038 µM) | 6 (≈ 0.0207 µM) | 8 (≈ 0.0276 µM) |
